Values after ≈ are worked out from the molar mass of the structure shown.
These molecules were tested on M. tuberculosis H37Rv (ATCC 27294) (assay: Microplate Alamar Blue assay (MABA), MIC against replicating M. tuberculosis H37Rv). Conditions: Mycobacterium tuberculosis, 168 h, read-out: M. tuberculosis MIC.
Format: cell-based

Point of comparison: `COc1nc2ccc(Br)cc2cc1C(c1ccccc1)C(O)(CCN(C)C)c1cccc2c1CCC2` (stereo not shown) [Example 40, 1-(6-Bromo-2-methoxyquinolin-3-yl)-2-(2,3-dihydro-1H-inden-4-yl)-4-(dimethylamino)-1-phenylbutan-2-ol], MIC 0.07 µg/mL (≈ 0.128 µM). Against it:
- COc1nc2ccc(Br)cc2cc1C(c1ccccc1)C(O)(CCN(C)C)c1cccc2ccsc12 (stereo not shown) [Example 15, 2-(Benzo[b]thiophen-7-yl)-1-(6-bromo-2-methoxyquinolin-3-yl)-4-(dimethylamino)-1-phenylbutan-2-ol] — 3.5-fold lower, 0.02 µg/mL (≈ 0.0356 µM)
- COc1nc2ccc(Br)cc2cc1C(c1ccnc(OC)c1OC)C(O)(CCN(C)C)c1cc2ccccc2o1 (stereo not shown) [Example 7, 2-(Benzofuran-2-yl)-1-(6-bromo-2-methoxyquinolin-3-yl)-1-(2,3-dimethoxypyridin-4-yl)-4-(dimethylamino)butan-2-ol] — 2.3-fold lower, 0.03 µg/mL (≈ 0.0495 µM)

Same assay, conditions: Mycobacterium tuberculosis, 168 h; H37Rv, MABA, 7H12 media, 7 days at 37° C.; MIC = lowest concentration reducing fluorescence by 90% relative to controls; read-out: M. tuberculosis MIC

Point of comparison: `COc1cc(C(O)(CCN(C)C)C(c2cccc(C)c2)c2cc3cc(Br)ccc3nc2OC)cc(OC(C)C)n1` (stereo not shown) [Example 25, 1-(6-Bromo-2-methoxyquinolin-3-yl)-4-(dimethylamino)-2-(2-isopropoxy-6-methoxypyridin-4-yl)-1-(m-tolyl)butan-2-ol], MIC 0.01 µg/mL (≈ 0.0164 µM). Against it:
- COc1cc(C(O)(CCN(C)C)C(c2cc3cc(Br)ccc3nc2OC)c2ccnc(OC)c2OC)cc(OC2CCC2)n1 (stereo not shown) [Example 30, 1-(6-Bromo-2-methoxyquinolin-3-yl)-2-(2-cyclobutoxy-6-methoxypyridin-4-yl)-1-(2,3-dimethoxypyridin-4-yl)-4-(dimethylamino)butan-2-ol] — lower, < 0.004 µg/mL
- CNCCC(O)(c1cc(OC)nc(OC)c1)C(c1cc2cc(C#N)ccc2nc1OC)c1cccc2c1OCCO2 (stereo not shown) [Example 93, 3-(1-(2,3-Dihydrobenzo[b][1,4]dioxin-5-yl)-2-(2,6-dimethoxypyridin-4-yl)-2-hydroxy-4-(methylamino)butyl)-2-methoxyquinoline-6-carbonitrile] — the same, 0.01 µg/mL (≈ 0.018 µM)
- COc1cc(C(O)(CCN(C)C)C(c2cc3cc(Br)ccc3nc2OC)c2cccc(OC)c2F)cc(OC(C)C)n1 (stereo not shown) [Example 16, 1-(6-Bromo-2-methoxyquinolin-3-yl)-4-(dimethylamino)-1-(2-fluoro-3-methoxyphenyl)-2-(2-isopropoxy-6-methoxypyridin-4-yl)butan-2-ol] — not separable, < 0.02 µg/mL
- COc1nc2ccc(Br)cc2cc1C(c1ccnc(OC)c1OC)C(O)(CCN(C)C)c1cc(SC)nc(SC)c1 (stereo not shown) [Example 46, 2-(2,6-Bis(methylthio)pyridin-4-yl)-1-(6-bromo-2-methoxyquinolin-3-yl)-1-(2,3-dimethoxypyridin-4-yl)-4-(dimethylamino)butan-2-ol] — not separable, < 0.02 µg/mL
- COc1cc(C(O)(CCN(C)C)C(c2ccc(C)s2)c2cc3cc(C#N)ccc3nc2OC)cc(OC)n1 (stereo not shown) [Example 75, 3-(2-(2,6-Dimethoxypyridin-4-yl)-4-(dimethylamino)-2-hydroxy-1-(5-methylthiophen-2-yl)butyl)-2-methoxyquinoline-6-carbonitrile] — 19-fold higher, 0.19 µg/mL (≈ 0.357 µM)
- COc1nc2ccc(Br)cc2cc1C(c1ccccc1)C(O)(CCN(C)C)c1cccc2occc12 (stereo not shown) [Example 14, 2-(Benzofuran-4-yl)-1-(6-bromo-2-methoxyquinolin-3-yl)-4-(dimethylamino)-1-phenylbutan-2-ol] — 6-fold higher, 0.06 µg/mL (≈ 0.11 µM)
- COc1nc2ccc(C#N)cc2cc1C(c1cccc(C)c1F)C(O)(CCN(C)C)c1cc(SC)nc(SC)c1 (stereo not shown) [Example 89, 3-(2-(2,6-Bis(methylthio)pyridin-4-yl)-4-(dimethylamino)-1-(2-fluoro-3-methylphenyl)-2-hydroxybutyl)-2-methoxyquinoline-6-carbonitrile] — 2-fold higher, 0.02 µg/mL (≈ 0.0347 µM)
- COc1cc(C(O)(CCN(C)C)C(c2cc3cc(Br)ccc3nc2OC)c2cccc(C)c2F)cc(OC(F)F)n1 (stereo not shown) [Example 54, 1-(6-Bromo-2-methoxyquinolin-3-yl)-2-(2-(difluoromethoxy)-6-methoxypyridin-4-yl)-4-(dimethylamino)-1-(2-fluoro-3-methylphenyl)butan-2-ol] — the same, 0.01 µg/mL (≈ 0.0158 µM)
- CCOc1cc(C(O)(CCN(C)C)C(c2cc3cc(Br)ccc3nc2OC)c2cccc(OC)c2F)cc(OC)n1 (stereo not shown) [Example 17, 1-(6-Bromo-2-methoxyquinolin-3-yl)-4-(dimethylamino)-2-(2-ethoxy-6-methoxypyridin-4-yl)-1-(2-fluoro-3-methoxyphenyl)butan-2-ol] — lower, < 0.01 µg/mL
- COc1cc(C(c2cc3cc(Br)ccc3nc2OC)C(O)(CCN(C)C)c2cccc(F)c2)cnc1OC (stereo not shown) [Example 3, 1-(6-Bromo-2-methoxyquinolin-3-yl)-1-(5,6-dimethoxypyridin-3-yl)-4-(dimethylamino)-2-(3-fluorophenyl)butan-2-ol] — 47-fold higher, 0.47 µg/mL (≈ 0.804 µM)
- COc1cc(C(O)(CCN(C)C)C(c2cc3cc(Br)ccc3nc2OC)c2cc(C)sc2C)cc(OC)n1 (stereo not shown) [Example 33, 1-(6-Bromo-2-methoxyquinolin-3-yl)-2-(2,6-dimethoxypyridin-4-yl)-4-(dimethylamino)-1-(2,5-dimethylthiophen-3-yl)butan-2-ol] — not separable, < 0.02 µg/mL
- COc1cc(C(O)(CCN(C)C)C(c2cccc(F)c2)c2cc3cc(Br)ccc3nc2OC)cc(OC)n1 (stereo not shown) [Example 39, 1-(6-Bromo-2-methoxyquinolin-3-yl)-2-(2,6-dimethoxypyridin-4-yl)-4-(dimethylamino)-1-(3-fluorophenyl)butan-2-ol] — not separable, < 0.02 µg/mL
- COc1cccc(C(c2cc3cc(Br)ccc3nc2OC)C(O)(CCN(C)C)c2cc(C)nc(C)c2)c1OC (stereo not shown) [Example 37, 1-(6-Bromo-2-methoxyquinolin-3-yl)-1-(2,3-dimethoxyphenyl)-4-(dimethylamino)-2-(2,6-dimethylpyridin-4-yl)butan-2-ol] — 8-fold higher, 0.08 µg/mL (≈ 0.135 µM)
- CCOc1cc(C(O)(CCN(C)C)C(c2cc3cc(Br)ccc3nc2OC)c2ccnc(OC)c2OC)cc(OC)n1 (stereo not shown) [Example 20, 1-(6-Bromo-2-methoxyquinolin-3-yl)-1-(2,3-dimethoxypyridin-4-yl)-4-(dimethylamino)-2-(2-ethoxy-6-methoxypyridin-4-yl)butan-2-ol] — not separable, < 0.02 µg/mL
- CCOc1cc(C(O)(CCN(C)C)C(c2cc3cc(Cl)ccc3nc2OC)c2cccc(OC)c2F)cc(OCC)n1 (stereo not shown) [Example 27, 1-(6-Chloro-2-methoxyquinolin-3-yl)-2-(2,6-diethoxypyridin-4-yl)-4-(dimethylamino)-1-(2-fluoro-3-methoxyphenyl)butan-2-ol] — the same, 0.01 µg/mL (≈ 0.0167 µM)
- COc1nc2ccc(C#N)cc2cc1C(c1cccc(F)c1)C(O)(CCN(C)C)c1cc2ccccc2o1 (stereo not shown) [Example 73, 3-(2-(Benzofuran-2-yl)-4-(dimethylamino)-1-(3-fluorophenyl)-2-hydroxybutyl)-2-methoxyquinoline-6-carbonitrile] — 8-fold higher, 0.08 µg/mL (≈ 0.157 µM)
- COc1nc2ccc(Br)cc2cc1C(c1cccc(C)c1F)C(O)(CCN(C)C)c1cc(SC)nc(SC)c1 (stereo not shown) [Example 55, 2-(2,6-Bis(methylthio)pyridin-4-yl)-1-(6-bromo-2-methoxyquinolin-3-yl)-4-(dimethylamino)-1-(2-fluoro-3-methylphenyl)butan-2-ol] — lower, < 0.004 µg/mL
- COc1cc(C(O)(CCN(C)C)C(c2cccc(C)c2)c2cc3cc(Br)ccc3nc2OC)cc(OC)n1 (stereo not shown) [Example 1, 1-(6-Bromo-2-methoxyquinolin-3-yl)-2-(2,6-dimethoxypyridin-4-yl)-4-(dimethylamino)-1-(m-tolyl)butan-2-ol] — not separable, < 0.02 µg/mL
- CCOc1cc(C(c2cc3cc(Br)ccc3nc2OC)C(O)(CCN(C)C)c2cccc3ccoc23)cc(OC)n1 (stereo not shown) [Example 22, 2-(Benzofuran-7-yl)-1-(6-bromo-2-methoxyquinolin-3-yl)-4-(dimethylamino)-1-(2-ethoxy-6-methoxypyridin-4-yl)butan-2-ol] — not separable, < 0.02 µg/mL
- CCOc1cc(C(O)(CCN(C)C)C(c2cc(OC)nc(OC)c2)c2cc3cc(Br)ccc3nc2OC)cc(OC(C)C)n1 (stereo not shown) [Example 24, 1-(6-Bromo-2-methoxyquinolin-3-yl)-1-(2,6-dimethoxypyridin-4-yl)-4-(dimethylamino)-2-(2-ethoxy-6-isopropoxypyridin-4-yl)butan-2-ol] — not separable, < 0.02 µg/mL
- CNCCC(O)(c1cc(OC)nc(OC)c1)C(c1cccc(F)c1)c1cc2cc(C#N)ccc2nc1OC (stereo not shown) [Example 97, 3-(2-(2,6-Dimethoxypyridin-4-yl)-1-(3-fluorophenyl)-2-hydroxy-4-(methylamino)butyl)-2-methoxyquinoline-6-carbonitrile] — the same, 0.01 µg/mL (≈ 0.0194 µM)
- COc1cc(C(O)(CCN(C)C)C(c2cc3cc(Br)ccc3nc2OC)c2cccc3c2OCCO3)cc(OC(F)F)n1 (stereo not shown) [Example 58, 1-(6-Bromo-2-methoxyquinolin-3-yl)-2-(2-(difluoromethoxy)-6-methoxypyridin-4-yl)-1-(2,3-dihydrobenzo[b][1,4]dioxin-5-yl)-4-(dimethylamino)butan-2-ol] — lower, < 0.01 µg/mL
- COc1cc(C(O)(CCN(C)C)C(c2cc3cc(Br)ccc3nc2OC)c2cccc(OC)c2F)cc(SC)n1 (stereo not shown) [Example 48, 1-(6-Bromo-2-methoxyquinolin-3-yl)-4-(dimethylamino)-1-(2-fluoro-3-methoxyphenyl)-2-(2-methoxy-6-(methylthio)pyridin-4-yl)butan-2-ol] — not separable, < 0.02 µg/mL
- COc1nc2ccc(Br)cc2cc1C(c1cccc2c1OCCO2)C(O)(CCN(C)C)c1cc(SC)nc(SC)c1 (stereo not shown) [Example 56, 2-(2,6-Bis(methylthio)pyridin-4-yl)-1-(6-bromo-2-methoxyquinolin-3-yl)-1-(2,3-dihydrobenzo[b][1,4]dioxin-5-yl)-4-(dimethylamino)butan-2-ol] — the same, 0.01 µg/mL (≈ 0.0152 µM)
- COc1nc2ccc(Br)cc2cc1C(c1ccccc1)C(O)(CCN(C)C)c1cccc2ccoc12 (stereo not shown) [Example 2, 2-(Benzofuran-7-yl)-1-(6-bromo-2-methoxyquinolin-3-yl)-4-(dimethylamino)-1-phenylbutan-2-ol] — 7-fold higher, 0.07 µg/mL (≈ 0.128 µM)
- COc1cc(C(O)(CCN(C)C)C(c2cccc(F)c2)c2cc3cc(C#N)ccc3nc2OC)cc(OC)n1 (stereo not shown) [Example 80, 3-(2-(2,6-Dimethoxypyridin-4-yl)-4-(dimethylamino)-1-(3-fluorophenyl)-2-hydroxybutyl)-2-methoxyquinoline-6-carbonitrile] — 3-fold higher, 0.03 µg/mL (≈ 0.0565 µM)
- COc1cc(C(O)(CCN(C)C)C(c2cc3cc(C#N)ccc3nc2OC)c2ccnc(OC)c2OC)cc(OC(F)F)n1 (stereo not shown) [Example 83, 3-(2-(2-(Difluoromethoxy)-6-methoxypyridin-4-yl)-1-(2,3-dimethoxypyridin-4-yl)-4-(dimethylamino)-2-hydroxybutyl)-2-methoxyquinoline-6-carbonitrile] — not separable, < 0.02 µg/mL

From US10981891B2, “Antibacterial compounds and uses thereof” (priority 2016, dated 2021)
